Numbering of substitutions follows the chain as printed. pEC50, pIC50: −log10 of the molar value. “And” between values parts separate entries of the source, which are not always exact repeats. Identical values can stand only once. Like-named read-outs stand apart in the source and are kept apart here.
Key:
[1] = biological target: T1, F876L mutant Androgen Receptor (AR-F876L) (Homo sapiens, UniProt P10275, F877L); assay: LNCaP-AR-F876L AG reporter assay (ARE firefly luciferase, agonist mode); assay type: cell-based; conditions: for EC50: agonist mode, −Log10(EC50 [Molar]), read-out: LNCaP-AR-F876L AG pEC50 (converted); for Emax: read-out: LNCaP-AR-F876L AG MAX % Stim
T1 construct: expressed in transfected cells; host or cells: LNCaP (LNCaP F876L)
T1 sequence (P10275 1-920 F877L): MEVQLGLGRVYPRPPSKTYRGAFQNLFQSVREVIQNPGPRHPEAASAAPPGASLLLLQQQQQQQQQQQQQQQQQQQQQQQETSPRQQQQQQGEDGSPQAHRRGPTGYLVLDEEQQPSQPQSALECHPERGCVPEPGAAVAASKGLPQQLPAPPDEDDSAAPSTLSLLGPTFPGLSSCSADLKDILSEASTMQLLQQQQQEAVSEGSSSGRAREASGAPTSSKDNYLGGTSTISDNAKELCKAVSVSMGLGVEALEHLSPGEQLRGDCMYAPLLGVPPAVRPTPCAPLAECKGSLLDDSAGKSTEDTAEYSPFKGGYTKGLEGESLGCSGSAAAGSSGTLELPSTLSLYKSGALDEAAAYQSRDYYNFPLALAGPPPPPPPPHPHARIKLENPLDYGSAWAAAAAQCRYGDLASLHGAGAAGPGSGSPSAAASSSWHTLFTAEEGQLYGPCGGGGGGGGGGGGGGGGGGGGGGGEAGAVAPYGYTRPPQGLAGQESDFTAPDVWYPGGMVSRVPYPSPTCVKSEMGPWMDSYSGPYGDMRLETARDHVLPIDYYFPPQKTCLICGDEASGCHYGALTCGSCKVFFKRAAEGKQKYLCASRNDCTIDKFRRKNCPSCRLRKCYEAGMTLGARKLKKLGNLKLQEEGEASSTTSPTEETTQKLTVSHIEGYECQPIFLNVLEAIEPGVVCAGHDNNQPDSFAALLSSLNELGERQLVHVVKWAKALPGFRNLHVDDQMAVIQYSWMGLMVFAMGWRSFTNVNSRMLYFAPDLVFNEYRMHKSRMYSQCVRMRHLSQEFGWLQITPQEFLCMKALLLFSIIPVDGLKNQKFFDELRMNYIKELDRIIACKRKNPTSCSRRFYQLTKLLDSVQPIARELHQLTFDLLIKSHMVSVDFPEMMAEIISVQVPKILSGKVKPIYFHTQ
How it was run: (§1)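 LNCaP cells stably expressing wild-type or F876L AR (puromycin-selected pooled populations) were cultured in charcoal-stripped serum medium. In antagonist mode, agonist challenge was 400 pM for wild-type and 600 pM for F876L.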

[2] = biological target: T2, wild-type Androgen Receptor (AR-wt) (Homo sapiens, UniProt P10275); assay: LNCaP-AR-wt ANT reporter assay (ARE firefly luciferase, antagonist mode); assay type: cell-based; conditions: for IC50: antagonist mode, 400 pM R-1881 challenge, −Log10(IC50 [Molar]), read-out: LNCaP-AR-wt ANT pIC50 (converted); for Emax: read-out: LNCaP-AR-wt ANT MAX % Inh
T2 construct: expressed in transfected cells; host or cells: LNCaP (LNCaP AR (cs))
T2 sequence (P10275 1-920): T1 sequence (P10275 1-920 F877L) with L877F
How it was run: (§2)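 Puromycin-selected LNCaP pools, grown in charcoal-stripped serum, were incubated 20-24 h at 37 °C with compounds, plus agonist challenge at 400 pM for wild-type and 600 pM for F876L.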

[3] = biological target: T1, F876L mutant Androgen Receptor (AR-F876L); assay: LNCaP-AR-F876L ANT reporter assay (ARE firefly luciferase, antagonist mode); assay type: cell-based; conditions: for Emax: read-out: LNCaP-AR-F876L ANT MAX % Inh; for IC50: read-out: LNCaP-AR-F876L ANT pIC50 (converted)
How it was run: as §2

[4] = biological target: T2, wild-type Androgen Receptor (AR-wt); assay: LNCaP-AR-wt AG reporter assay (ARE firefly luciferase, agonist mode); assay type: cell-based; conditions: for EC50: agonist mode, −Log10(EC50 [Molar]), read-out: LNCaP-AR-wt AG pEC50 (converted); for Emax: read-out: LNCaP-AR-wt AG MAX % Stim
How it was run: as §1

F876L-VP16 = biological target: T3, F876L-VP16 (Homo sapiens, UniProt P10275, F877L); assay: AR-VP16 DNA binding assay, HepG2; assay type: cell-based; conditions: HepG2, antagonist mode, 1 nM R1881, 48 hours
T3 construct: VP16 (fusion partner); expressed in transfected cells; host or cells: HepG2
T3 sequence (P10275 1-920 F877L): T1 sequence (P10275 1-920 F877L)
Experimental: (§3) HepG2 cells were maintained in EMEM supplemented with 10% FBS. One day before transfection, the media was changed to EMEM with 10% CSS. […] Cells were then trypsinized, counted and resuspended at 500,000 cells/mL. For agonist mode, the compounds were serially diluted and 50 μL of the compound was added per well. 50 μL of the cells were added to each well and incubated for 48 hours. For antagonist mode, a final concentration of 90 pM (VP16 AR) or 1 nM (VP16 F876L) R1881 was added to the plate and incubated for 48 hours. The plates were then assayed using SteadyGlo and read on the Envision. Percent Stimulation and Inhibition were determined and analyzed using GraphPad Prism.

AR-VP16 = biological target: T4, AR-VP16 (Homo sapiens, UniProt P10275); assay: AR-VP16 DNA binding assay, HepG2; assay type: cell-based; conditions: HepG2, antagonist mode, 90 pM R1881, 48 hours; read-out: IC50 VP16 WT
T4 sequence (P10275 560-920 limits assumed): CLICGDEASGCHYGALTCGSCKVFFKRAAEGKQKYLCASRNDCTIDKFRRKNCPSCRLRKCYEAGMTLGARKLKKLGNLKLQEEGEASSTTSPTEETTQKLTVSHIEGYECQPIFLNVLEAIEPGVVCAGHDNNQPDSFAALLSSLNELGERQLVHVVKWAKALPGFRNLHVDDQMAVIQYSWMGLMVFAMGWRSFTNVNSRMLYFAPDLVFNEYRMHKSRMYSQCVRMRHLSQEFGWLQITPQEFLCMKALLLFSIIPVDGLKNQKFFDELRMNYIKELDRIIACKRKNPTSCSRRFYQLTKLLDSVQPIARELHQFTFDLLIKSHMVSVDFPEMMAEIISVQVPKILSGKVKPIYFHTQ
Experimental: as §3

[5] = system: androgen dependent signaling; assay: Hershberger assay; assay type: in vivo, rat
Experimental: The effect of AR antagonists on androgen dependent signaling in vivo was assessed using the Hershberger assay. In this assay, peripubertal castrated male Sprague-Dawley rats were administered AR antagonists described herein in the presence of testosterone (0.4 mg/kg testosterone propionate) and the weights of androgen dependent organs measured. Dosing was continued for 10 days and measurements taken 24 h after the last dose. The extent of antagonism of AR and consequent inhibition of organ growth was evaluated by comparison to the castration control. Compounds of Formula (I) were dosed orally QD and an endpoint assessment made by change in weight of 5 androgen sensitive organs (ASO): Paired Cowper's Glands (CG), Seminal Vesicles with Fluids and Coagulating Glands (SVCG), Glans Penis (GP), Ventral Prostate (VP) and Levator Ani-Bulbocavernosus Complex (LABC)). According to assay guidelines, statistically significant suppression of ASO is required in 2 of 5 organs for a compound to be classified as an anti-androgen (analysis was performed by t-test/Mann-Whitney).
Compounds defined herein were administered at the indicated dose (mg/kg) and flutamide (FT), positive control, at 3 mg/kg. All compounds were co-administered with testosterone propionate (TP, 0.4 mg/kg) which was also administered alone, untreated control, (castrated only rats served as the control for complete androgen blockade). A statistically significant change in ASO achieved in at least 2 of 5 organs was indicative of an active compound.

T877A AR mutant = biological target: T5, T877A AR mutant (Homo sapiens, UniProt P10275, T878A); conditions: cited from earlier work
T5 sequence (P10275 1-920 T878A): T1 sequence (P10275 1-920 F877L) with L877F, T878A

[6] = maximum % stimulation (agonist response) over tested concentration range
[7] = maximum % inhibition of R1881 control response over tested concentration range
[8] = 3 mg/kg orally QD 10 days with testosterone propionate 0.4 mg/kg, castrated rats, mean ± SD (n=6)

EC50 [1] [nM]	Emax [1, 6] [%]	IC50 [2] [nM]	Emax [2, 7] [%]	Emax [3, 7] [%]	IC50 [3] [nM]	EC50 [4] [nM]	Emax [4, 6] [%]	Structure (SMILES)	other results
> 15100	0.7	933	98.7	99.3	525	> 15100	1.1	Cc1cc(N2C(=O)C3(CCC3)N(c3ccc(OC4CCN(CCO)CC4)cc3)C2=S)cnc1C#N [Cpd 60, 5-[8-[4-[[1-(2-hydroxyethyl)-4-piperidyl]oxy]phenyl]-5-oxo-7-thioxo-6,8-diazaspiro[3.4]octan-6-yl]-3-methyl-pyridine-2-carbonitrile]	pIC50 (F876L-VP16): 6.13; pIC50 (AR-VP16): 5.69
–	–	–	–	–	–	–	–	CC(C)(O)C(=O)Nc1ccc([N+](=O)[O-])c(C(F)(F)F)c1 [hydroxyflutamide]	activity in T877A AR mutant (T877A AR mutant): act as AR agonists
–	–	–	–	–	–	–	–	CC(C)C(=O)Nc1ccc([N+](=O)[O-])c(C(F)(F)F)c1 [Flutamide, flutamide, reference compound]	ASO Organ Growth (% of TP control) SVCG [5, 8]: 22.5 ± 22.9 % of TP control and 16.6 ± 16.3 % of TP control; ASO Organ Growth (% of TP control) VP [5, 8]: 31.1 ± 29.2 % of TP control and 24.4 ± 35.5 % of TP control
> 15100	2.4	617	101	95.9	631	> 15100	1.8	N#Cc1ncc(N2C(=O)C3(CCC3)N(c3cccc(F)c3F)C2=S)cc1C(F)(F)F [Cpd 106, 5-[8-(2,3-difluorophenyl)-5-oxo-7-thioxo-6,8-diazaspiro[3.4]octan-6-yl]-3-(trifluoromethyl)pyridine-2-carbonitrile]	–

Structure (SMILES)	EC50 [1] [nM]	Emax [1, 6] [%]	IC50 [2] [nM]	Emax [2, 7] [%]	Emax [3, 7] [%]	IC50 [3] [nM]	EC50 [4] [nM]	Emax [4, 6] [%]	other results
CN1CCN(CCCc2ccc(N3C(=S)N(c4cnc(C#N)c(C(F)(F)F)c4)C(=O)C34CCC4)cc2)CC1 [Cpd 43, 5-[8-[4-[3-(4-methylpiperazin-1-yl)propyl]phenyl]-5-oxo-7-thioxo-6,8-diazaspiro[3.4]octan-6-yl]-3-(trifluoromethyl)pyridine-2-carbonitrile]	–	–	501	–	–	245	–	–	reduction in ASO versus TP control ([5]; all 5 organs, p≦0.05): significant reduction in ASO; pEC50 [1]: < 4.82; Emax [1]: 0.4%; Emax [2]: 97.3%; Emax [3]: 98.9%; pEC50 [4]: < 4.82; Emax [4]: 0.7%

— patent US20180008587A1, “THIOHYDANTOIN ANDROGEN RECEPTOR ANTAGONISTS FOR THE TREATMENT OF CANCER” (Jaressen Pharmaceutica NV, priority 2016, published 2018)
